From patent publication US4728658A, “Pyridine derivatives” (John Wyeth & Brother Limited, priority 1984, dated 1988)
Read-outs that look alike come from different tables or passages of the source.

Target: T1, H^+ /K^+ ATPase (Oryctolagus cuniculus, UniProt P27112)
T1 construct: Rabbit gastric glands are isolated from gastric mucosa; from tissue; host or cells: rabbit isolated gastric glands (gastric mucosa, corpus region of the stomach)
Assay: Inhibition of 14C-aminopyrine uptake in rabbit isolated gastric glands stimulated by DBcAMP or high K+ (anti-secretory activity)
Type: cell-based
Conditions: for inhibition at 100 µM: 10^-4 M, % inhibition of maximum response to secretagogue; for antisecretory activity: result in words in the introduction, test not named
Description: Compounds of formula I may be tested for anti-secretory activity by their ability to inhibit the highly specific proton transporting enzyme H^+ /K^+ ATPase.
Potential H^+ /K^+ ATPase inhibitors are evaluated by a technique involving the measurement of aminopyrine accumulation in rabbit isolated gastric glands. Aminopyrine accumulates in acid-secreting cells; therefore, uptake of aminopyrine is increased by secretagogues and an inhibitor of acid secretion will reduce the response to one or more secretagogues depending upon its site of action.
The following test procedure is used:
Rabbit gastric glands are isolated from gastric mucosa from the corpus region of the stomach by a method based on one described by Berglindh T., Obrink K. J., Acta Physiol. Scand.
Compounds are tested at a concentration of 10^-4 M, for their ability to inhibit ^14 C-aminopyrine uptake in gastric glands, stimulated by DBcAMP and high K^+ respectively. Results are expressed as the % inhibition of the maximum response to the secretagogue induced by the test compound.

[1] = 14C-aminopyrine uptake in rabbit gastric glands stimulated by high K^+, read-out: % Inhibition to stimulation by: K^+
[2] = 14C-aminopyrine uptake in rabbit gastric glands stimulated by DBcAMP, read-out: % Inhibition to stimulation by: DBcAMP

T1 sequence (P27112 whole entry): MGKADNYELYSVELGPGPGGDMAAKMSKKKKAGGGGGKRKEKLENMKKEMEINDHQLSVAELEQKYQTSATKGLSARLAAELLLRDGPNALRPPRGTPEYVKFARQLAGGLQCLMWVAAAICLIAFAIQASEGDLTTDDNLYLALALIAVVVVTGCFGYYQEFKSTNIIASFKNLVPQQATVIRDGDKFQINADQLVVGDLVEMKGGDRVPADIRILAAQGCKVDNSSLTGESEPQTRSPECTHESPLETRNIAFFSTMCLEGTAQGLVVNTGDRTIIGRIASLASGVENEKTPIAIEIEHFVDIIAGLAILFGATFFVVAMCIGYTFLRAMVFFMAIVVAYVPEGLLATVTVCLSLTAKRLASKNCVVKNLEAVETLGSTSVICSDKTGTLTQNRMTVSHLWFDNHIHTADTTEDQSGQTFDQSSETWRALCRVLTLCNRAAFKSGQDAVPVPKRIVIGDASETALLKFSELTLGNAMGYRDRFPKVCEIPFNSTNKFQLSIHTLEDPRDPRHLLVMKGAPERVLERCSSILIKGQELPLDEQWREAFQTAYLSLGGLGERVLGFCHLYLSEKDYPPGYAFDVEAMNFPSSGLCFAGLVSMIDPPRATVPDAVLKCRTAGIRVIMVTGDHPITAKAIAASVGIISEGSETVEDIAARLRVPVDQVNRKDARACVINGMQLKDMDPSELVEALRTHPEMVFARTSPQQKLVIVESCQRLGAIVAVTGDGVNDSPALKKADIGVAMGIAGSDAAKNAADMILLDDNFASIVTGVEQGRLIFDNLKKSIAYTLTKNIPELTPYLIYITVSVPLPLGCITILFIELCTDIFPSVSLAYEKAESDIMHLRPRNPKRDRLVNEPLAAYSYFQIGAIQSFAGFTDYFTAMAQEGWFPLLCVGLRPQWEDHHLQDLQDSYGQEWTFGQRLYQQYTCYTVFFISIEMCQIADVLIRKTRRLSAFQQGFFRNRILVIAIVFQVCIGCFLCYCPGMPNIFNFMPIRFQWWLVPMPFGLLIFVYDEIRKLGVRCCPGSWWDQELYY
T1 sequence (P18597 whole entry partner): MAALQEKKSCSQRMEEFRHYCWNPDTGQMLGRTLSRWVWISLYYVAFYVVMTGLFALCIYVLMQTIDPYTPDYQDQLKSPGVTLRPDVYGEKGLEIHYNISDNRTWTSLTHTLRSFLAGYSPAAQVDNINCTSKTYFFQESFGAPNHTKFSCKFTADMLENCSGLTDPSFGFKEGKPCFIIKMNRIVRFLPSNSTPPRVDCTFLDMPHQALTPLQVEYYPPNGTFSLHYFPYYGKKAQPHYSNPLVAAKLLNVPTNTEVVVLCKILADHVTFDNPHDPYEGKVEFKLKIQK

SMILES | inhibition at 100 µM [1] [%] | inhibition at 100 µM [2] [%] | antisecretory activity
O=C(Nc1ccc(Cl)c(C(F)(F)F)c1)c1cc[n+]([O-])cc1 [N-[4-chloro-3-(trifluoromethyl)phenyl]-4-pyridinecarboxamide-1-oxide] | 168 |  | 
O=C(Nc1ccc([N+](=O)[O-])cc1)c1cc[n+]([O-])cc1 [N-(4-nitrophenyl)pyridine-4-carboxamide-1-oxide] | 84 | 33 | 
Nc1ccccc1NC(=O)c1cc[n+]([O-])cc1 [N-(2-aminophenyl)pyridine-4-carboxamide-1-oxide] | 130 | 106 | exhibited antisecretory activity
O=C(Nc1ccc(Cl)cc1NC(=O)c1cc[n+]([O-])cc1)c1cc[n+]([O-])cc1 [4-Chloro-N,N'-1,2-phenylenebis(4-pyridinecarboxamide-1-oxide)] | 27 | 20.5 | 
O=C(Nc1ccccc1Cl)c1cc[n+]([O-])cc1 [2-chlorophenyl, reference compound] |  |  | not active
Nc1ccc(NC(=O)c2cc[n+]([O-])cc2)cc1 [4-amino, reference compound] |  |  | inactive
Nc1cc(Cl)c(Cl)cc1NC(=O)c1cc[n+]([O-])cc1 [N-(2-amino-4,5-dichlorophenyl)-4-pyridinecarboxamide-1-oxide] | 36 |  | 
O=C(Nc1ccccc1)c1cc[n+]([O-])cc1 [phenyl, reference compound] |  |  | not active
Nc1ccccc1NC(=O)c1ccncc1 [N--(2-aminophenyl)pyridine-4-carboxamide, N-(2-aminophenyl)-4-pyridinecarboxamide] | 54 |  | 
Nc1cccc(NC(=O)c2cc[n+]([O-])cc2)c1 [Example 3-amino, reference compound] |  |  | inactive
O=C(Nc1ccc(Cl)cc1)c1cc[n+]([O-])cc1 [N-(4-chlorophenyl)-4-pyridinecarboxamide-1-oxide] | 32 | 22 | exhibited antisecretory activity
